According to patent US20040116523A1, “Use of c4-c10 acids for preventing gram-negative bacterial infections” (priority 2000, published 2004):

Key:
[1] = tested on: iagA′-lacZ fusion (S. typhi strain Ty267); assay: β-galactosidase activity of the iagA′-lacZ fusion in favourable LB medium; assay type: cell-based; settings: for β-Galactosidase activity of the iagA′-lacZ fusion (Table VII): fatty acid as sodium salt, control 22022 ± 1177; for β-Galactosidase activity of the iagA′-lacZ fusion (Table VII) / inhibition of the expression of the iagA′-lacZ fusion in S. typhi (in words) / β-galactosidase activity of the iagA′-lacZ fusion (Table II): 5 mM in favourable LB medium, 6 hours at 37° C.; for inhibition of the expression of the iagA′-lacZ fusion in S. typhi (in words): sodium salt; for β-galactosidase activity of the iagA′-lacZ fusion (Table II): control 12134 ± 1811
Experimental: (§1) The favourable LB medium (high osmolarity and concentration of Ca^2+ions) was defined as being the standard LB medium modified so as to have a final NaCl concentration of 300 mM and a final Ca concentration of 5 mM.
Each of the strains described above was cultured at 37° C. on agar or in TCS broth. The P-galactosidase activity was determined using 4-methyl-umbelliferyl-p-D-galactopyranoside sold by the company Sigma, according to the technique of Klarsfeld et al. (Mol. Mibrobiol., 1994, 13, 585-597). The results, expressed in P-galactosidase units (fluorescence per hour and per OD600), represent the mean of the values obtained in at least three independent experiments. The standard deviations were less than 10% of the values presented. […]
The β-galactosidase activity of the iagA′-lacZ fusion was measured after incubation for 6 hours at 37° C. with shaking (200 rpm).
The S. typhi Ty267 strain (iagA′-lacZ fusion) was seeded into favourable LB medium and into favourable LB medium containing the fatty acid to be tested, in the form of its sodium salt, at the final concentration of 5 mM.

[2] = tested on: invF′-lacZ fusion (S. typhi strain Ty272); assay: β-galactosidase activity of the invF′-lacZ fusion in favourable LB medium; assay type: cell-based; settings: LB medium with 300 mM NaCl and 1 mM EGTA (depleted of divalent cations) versus favourable LB medium
Experimental: as §1
(§2) Each of the strains described above was cultured at 37° C. on agar or in TCS broth. The P-galactosidase activity was determined using 4-methyl-umbelliferyl-p-D-galactopyranoside sold by the company Sigma, according to the technique of Klarsfeld et al. (Mol. Mibrobiol., 1994, 13, 585-597). The results, expressed in P-galactosidase units (fluorescence per hour and per OD600), represent the mean of the values obtained in at least three independent experiments. The standard deviations were less than 10% of the values presented.
(§3) For this, the S. typhi strains Ty267, Ty272 and Ty277, which carry the iagA′-lacZ, invF′-lacZ and sipB′-lacZ fusions, respectively, (see Table I), were cultured in the favourable LB or unfavourable LB medium.
(§4) The action of these two compounds on the expression of the iagA′-lacZ, invF′-lacZ and sipB′-lacZ fusions was studied by measuring the β-galactosidase activity expressed by these fusions as a function of the time of culturing (samples removed every two hours).

[3] = tested on: sipB′-lacZ fusion (S. typhi strain Ty277); assay: β-galactosidase activity of the sipB′-lacZ fusion in favourable LB medium; assay type: cell-based; settings: LB medium with 300 mM NaCl and 1 mM EGTA (depleted of divalent cations) versus favourable LB medium
Experimental: as §1, §2, §3, §4

[4] = tested on: Gram-positive or Gram-negative microorganisms; settings: acid pH (free acid form); cited from earlier work
[5] = tested on: Gram-positive or Gram-negative bacteria; settings: in vitro, concentration not given; cited from earlier work
Salmonellae = assay: Bactericidal or bacteriostatic effect on the Salmonellae at neutral pH; assay type: cell-based, Salmonella
[6] = tested on: iagA′-lacZcat fusion in S. typhi strain Ty267; assay: "Biotype 100" plate screen for carbon-based substrates that repress the iagA′-lacZcat fusion (β-galactosidase activity); assay type: cell-based; settings: "Biotype 100" cupule, amount of substrate not known; favourable LB medium; 36 hours at 37° C.; control cupule without substrate 11 250
Experimental: as §2
A “Biotype 100”® plate sold by the company BioMerieux is composed of 100 microcupules. Each micro-cupule contains a dehydrated carbon-based substrate, with the exception of the first cupule, which is a control without substrate (the amount of dehydrated substrate per cupule is not given by the manufacturer).
In the context of the present example, these plates were used to search for carbon-based compounds which would block the expression of the invasion genes in Salmonella.
For this, the S. typhi strain Ty267, which is a derivative of the parental strain Ty2 carrying the iagA′-lacZcat transcriptional fusion (Table I), was cultured in TCS broth for 18 hours at 37° C. with shaking (200 rpm).
This culture was then diluted 100-fold in favourable LB medium (0.6 ml of culture for 60 ml of favourable LB), and then this suspension was used immediately to seed the 100 cupules of a “Biotype 100”® plate, in a proportion of 450 μl of suspension per cupule.
After incubation for 36 hours in an incubator at 37° C., the activity of the iagA′-lacZcat fusion in the Ty267 strain was determined for the culture of each cupule.
By comparing the value of the P-galactosidase activity measured in a cupule containing a carbon-based substrate with that of the control cupule without substrate, it was possible to investigate whether a substrate had no effect on, activated or repressed the expression of the iagA′-lacZcat fusion.
The S. typhi strain Ty267 (iagA′-lacZ fusion), suspended in the favourable LB medium, was used to seed the “Biotype 100”® plates.
The β-galactosidase activity expressed by the iagA′-lacZ fusion was determined for the culture in each cupule. With respect to the β-galactosidase activity measured in the control cupule without substrate (11 250 β-galactosidase units), no substrate caused an increase in the expression of the iagA′-lacZ fusion.

Row | SMILES | β-Galactosidase activity of the iagA′-lacZ fusion (Table VII) [1] | inhibition of the expression of the iagA′-lacZ fusion in S. typhi (in words) [1] | other results
1 | CCCCCCC(N)C(=O)O (stereo not shown) [2-Aminocaprylic acid] | 33149 ± 2520 β-galactosidase units | totally blocks the inhibitory activity | –
2 | CCCCCCC(O)C(=O)O (stereo not shown) [2-Hydroxycaprylic acid] | 225 ± 72 β-galactosidase units | does not modify the expression | –
3 | NCCCCCCCC(=O)O [8-Aminocaprylic acid] | 18077 ± 1263 β-galactosidase units | totally blocks the inhibitory activity | –
4 | O=C(O)CCCCCCCO [8-Hydroxycaprylic acid] | 593 ± 49 β-galactosidase units | does not modify the expression | –
5 | CC(=O)O [Acetic acid] | 29265 ± 1692 β-galactosidase units | do not make it possible to inhibit | –
6 | CCCC(=O)O [Butyric acid] | 21225 ± 1741 β-galactosidase units | do not make it possible to inhibit | –
7 | CCCCCC(=O)O [Caproic acid] | 347 ± 21 β-galactosidase units | as strongly as sodium caprylate | –
8 | O=C(O)CN(CCOCCOCCN(CC(=O)O)CC(=O)O)CC(=O)O [EGTA, ethylene glycol bis(β-aminoethyl ether) N,N,N′,N′-tetraacetic acid] | – | – | expression of the invF′-lacZ fusion [2]: repression; expression of the iagA′-lacZ fusion ([1]; LB medium with 300 mM NaCl and 1 mM EGTA (depleted of divalent cations) versus favourable LB medium): repression; expression of the sipB′-lacZ fusion [3]: repression
9 | CCCCCCC(=O)O [Oenanthic acid] | 525 ± 43 β-galactosidase units | as strongly as sodium caprylate | –
10 | CCCCCCCCC(=O)O [Pelargonic acid] | 383 ± 54 β-galactosidase units | as strongly as sodium caprylate | –
11 | CCC(=O)O [Propionic acid] | 14650 ± 1333 β-galactosidase units | do not make it possible to inhibit | –
12 | CCCCC(=O)O [Valeric acid] | 509 ± 91 β-galactosidase units | as strongly as sodium caprylate | –
13 | CCCCCCCCCC(=O)O [decanoic acid] | – | – | bactericidal activity on a great variety of Gram-positive or Gram-negative microorganisms [4]: bactericidal activity
14 | CCCCC/C=C\C/C=C\CCCCCCCC(=O)O [linoleic acid] | – | – | bacteriostatic or bactericidal effect on Gram-positive or Gram-negative bacteria [5]: very effective
15 | CCCCCC(=O)O [n-hexanoic acid] | – | – | bactericidal activity on a great variety of Gram-positive or Gram-negative microorganisms [4]: bactericidal activity
16 | CCCCCCCC/C=C\CCCCCCCC(=O)O [oleic acid] | – | – | bacteriostatic or bactericidal effect on Gram-positive or Gram-negative bacteria [5]: very effective
17 | O=C([O-])CCc1ccccc1.[Na+] [sodium 3-phenylpropionate] | – | inhibit | bactericidal or bacteriostatic effect on the Salmonellae (Salmonellae): none of these compounds has any significant bactericidal or bacteriostatic effect; β-galactosidase activity of the iagA′-lacZ fusion (Table II) [1]: 297 ± 95 β-galactosidase units; β-galactosidase activity expressed by the iagA′-lacZ fusion in the cupule [6]: 166 β-galactosidase units
18 | O=C([O-])CCCc1ccccc1.[Na+] [sodium 4-phenylbutyrate] | – | inhibited | bactericidal or bacteriostatic effect on the Salmonellae (Salmonellae): none of these compounds has any significant bactericidal or bacteriostatic effect; β-galactosidase activity of the iagA′-lacZ fusion (Table II) [1]: 198 ± 32 β-galactosidase units
19 | O=C([O-])Cc1ccccc1.[Na+] [sodium phenylacetate] | – | inhibit | bactericidal or bacteriostatic effect on the Salmonellae (Salmonellae): none of these compounds has any significant bactericidal or bacteriostatic effect; β-galactosidase activity of the iagA′-lacZ fusion (Table II) [1]: 149 ± 24 β-galactosidase units; β-galactosidase activity expressed by the iagA′-lacZ fusion in the cupule [6]: 81 β-galactosidase units
